Reference: PMC12187842, “A novel molecule targeting neutrophil-mediated B-1a cell trogocytosis attenuates sepsis-induced acute lung injury” (Frontiers in Immunology, 2025)

Experiments:
[1] = system: neutrophil-mediated B-1a cell trogocytosis; experiment: Neutrophil-mediated B-1a cell trogocytosis by flow cytometry after C11 treatment in CLP mice; format: in vivo, mouse; conditions: C11 10 mg/kg i.p. once immediately after CLP; cells isolated 4 h after CLP; CFSE-positive events within Ly6G-positive neutrophils; n = 5-6/group; p < 0.05 vs. C11 (-)
From the text: (§1) Mice were anesthetized with 2% isoflurane in oxygen, and sepsis was induced via cecal ligation and puncture (CLP) ([26]). A 1-cm midline abdominal incision was made to expose the cecum, which was ligated 1-cm proximal to its end using a 4-0 silk suture. The cecum then was perforated with a single through-and-through puncture using a 22-gauge needle, positioned midway between the ligation and the tip of the cecum. A small amount of fecal material was gently extruded from the perforation sites to confirm the patency of the punctures, and the cecum was subsequently returned to the peritoneal cavity. Following abdominal closure, resuscitation was provided via subcutaneous (s.c.) injection of 500 µL normal saline. […]
B-1a cells (target cells) were isolated, and dead cells were removed using the EasySep Dead Cell Removal Kit (Cat. No. 17899, STEMCELL Technologies). […] Trogocytosis was evaluated using confocal imaging (LSM900; Zeiss, Oberkochen, Germany) to visualize the interaction between neutrophils and B-1a cells. NucBlue Live ReadyProbes Reagent (Thermo Fisher Scientific) was used for nuclear staining. For quantitative analysis, trogocytosis was assessed by flow cytometry, where CFSE (Carboxyfluorescein succinimidyl ester)-positive events within Ly6G-positive neutrophil populations were quantified as indicators of trogocytosis. […]

B-1a cells = experiment: B-1a cell numbers in pleural and peritoneal cavities of CLP mice by flow cytometry; format: in vivo, mouse
From the text: as §1, with “saline. Postoperative analgesia was administered with a single dose of 0.1 mg/kg buprenorphine.” for “saline.”
B-1a cell and neutrophil populations were analyzed by flow cytometry ([9], [11], [28]). […] After that, B-1a cells (CD45^+CD19^+B220^lo/-CD5^+CD23^-) ([6], [28]), and neutrophils (CD45^+Ly6G^+) were detected by flow cytometry. Fc block (Cat. No. 156604, BioLegend) was used to prevent nonspecific antibody binding and the cell viability was determined using a Zombie Aqua Fixable Viability Kit (BioLegend). […]

126-ELKNRTVSWFS-136 [Compound C11]
neutrophil-mediated B-1a cell trogocytosis [1]: significantly reduced
B-1a cell numbers in the pleural and peritoneal cavities (B-1a cells; C11 10 mg/kg i.p. once immediately after CLP, 20 h after surgery, flow cytometry, n = 5-6/group, p < 0.05 vs. C11 (-)): effectively preserved
restoration of B-1a cell numbers in sepsis (B-1a cells; discussion, blocking of Siglec-G/CD47 interaction by C11 in CLP mice): did not fully restore B-1a cell numbers
